Data on 3 compounds can be found in ChEMBL document CHEMBL6071209, “Design, Synthesis, and Biological Evaluation of a Series of Spiro Analogues as Novel HPK1 Inhibitors” (ACS Med Chem Lett, 2024).

A short description of data set [1]: Volume of distribution in Sprague-Dawley rat at 1 mg/kg, iv measured upto 24 hrs by LC-MS/MS method. The format is ADME, organism-based. As to conditions: in vivo.
The conditions of data set [2]: rat, in vivo, po, 10 mg/kg, 24 h.
The nature of data set [3]: Clearance in Beagle dog at 1 mg/kg, iv measured upto 24 hrs by LC-MS/MS method. The format is ADME, organism-based, Canis lupus familiaris. As to conditions: in vivo.
The conditions of data set [4]: mouse, in vivo, iv, 1 mg/kg, 24 h.
Data set [5] in a line: Bioavailability in Beagle dog at 1 mg/kg, iv measured upto 24 hrs by LC-MS/MS method. The conditions noted are these: in vivo. In kind it is ADME, organism-based, Canis lupus familiaris.
The nature of data set [6]: in vivo. The conditions noted are these: Sprague-Dawley, rat, iv, 1 mg/kg.
A short description of data set [7]: in vivo. As to conditions: Sprague-Dawley, rat, iv, 1 mg/kg. This is another data set of the same source.
The nature of data set [8]: in vivo. As to conditions: BALB/c, mouse, iv, 1 mg/kg.
A short description of data set [9]: in vivo. As to conditions: BALB/c, mouse, po, 10 mg/kg.
Data set [10] in a line: Volume of distribution in BALB/c mouse at 1 mg/kg, iv measured upto 24 hrs by LC-MS/MS method. The format is ADME, organism-based. The conditions noted are these: in vivo.
Data set [11] can be described thus: Volume of distribution in Beagle dog at 1 mg/kg, iv measured upto 24 hrs by LC-MS/MS method. The format is ADME, organism-based, Canis lupus familiaris. As to conditions: in vivo.
For data set [12] the following is noted: mouse, in vivo, po, 10 mg/kg, 24 h.
A short description of data set [13]: in vivo. The conditions noted are these: beagle, dog, po, 2 mg/kg.
The conditions of data set [14]: dog, in vivo, po, 2 mg/kg, 24 h.
The nature of data set [15]: in vivo. The conditions noted are these: Sprague-Dawley, rat, iv, 1 mg/kg. This is another data set of the same source.
Data set [16] is described as follows: in vivo. As to conditions: BALB/c, mouse, iv, 1 mg/kg. This is another data set of the same source.

As to `CN(C)Cc1nc(Nc2ccc(-c3cnc4cc(F)ccn34)c3c2C(=O)NC3)ccc1C1CCOCC1`, the values for the Vd in data set [1], in [10] and in data set [11] were 12.5 L/kg, 5 L/kg and 24.2 L/kg, respectively. Also, the AUC/dose in [2] is 31.2 ng·h/mL; in [12], 224.5 ng·h/mL; in [14], 6.5 ng·h/mL. This compound came in with a clearance in data set [3] of 108 mL/min/kg. In addition, the F in [4] is 187%. Further, the bioavailability in data set [5] is 4.9%. Besides, the clearance at 24 h in [6] was 230 mL/min/kg; in data set [8], 138 mL/min/kg. Moreover, the bioavailability at 24 h in [7] was found to be 38%. The half-life at 24 h in [9] is 3.7 h; in data set [13], 1.5 h.
In the case of `COC1CCC2(CC1)c1ccc(Nc3ccc(-c4cnc5cc(F)ccn45)c4c3C(=O)NC4)nc1CN2C` (configuration not stated), the AUC/dose in [2] stood at 15.3 ng·h/mL. The compound further showed a half-life at 24 h in [15] of 1 h.
For `O=C1NCc2c(-c3cnc4cc(F)ccn34)ccc(Nc3ccc4c(n3)CN(CCN3CC[C@@H](F)C3)C43CCOCC3)c21`, the AUC/dose was 43.5 ng·h/mL in data set [2] and 290.2 ng·h/mL in data set [12]. The half-life at 24 h in data set [15] was 4.1 h; in [9] it was 1.4 h. This compound also came in with a clearance at 24 h in data set [8] of 28 mL/min/kg. This compound also came in with a bioavailability at 24 h in data set [16] of 50%.
